The test system of data set [1] is Aminopeptidase P (APP). The note with it: Human BAL.
Data set [2] relates to Aminopeptidase P (APP). As to conditions: Rat Plasma.
The next data set concerns the target T1, DPPIV (Rattus norvegicus, UniProt P14740).
T1 construct: from tissue; host or cells: plasma of control and septic rats
Description: plasma enzyme activity towards DPPIV substrates in septic rat model. The format is biochemical, Sprague-Dawley rats. On the procedure: (§1) Accordingly, ten male Sprague-Dawley rats, weighing approximately 300 gr., were injected with 3.5 mg/kg of GPA (prepared by sterile ultrafiltration in saline) and placed into metabolic cages for ^13CO2 collection (by alkaline trapping in seven 0.5 hour increments), in general as described by Vann et al. A blood draw of 0.4 ml was taken prior to the tracer administration to provide a baseline plasma titer for in vivo DPPIV activity. The following day, the rats were separated into a control panel and a test panel. Each of the three animals in the test panel was made septic (on Day 0) by intravenous (tail vein) adminstration of E. coli. Three control animals were sham injected with saline, and all were maintained in separate cages.
(§2) On day 2 and 6, and after a […], the administration of the “breath test” metaprobe and ^13CO2 collection was repeated. Equal aliquots of plasma were assayed for enzyme activity by spectrophotometry in two ways: a) using GP4NA (FIG. 16, structure I), a traditional and confirmatory approach, and b) using GPPaba (FIG. 16, structure III with R1 being the protonated free acid) by GC/MS quantitation of the p-aminobenzoic[1-^13C] acid (Paba, FIG. 16, structure IV) derived hydrolytically. The isotopic enrichment of the seven breath collections was measured by isotope ratio mass spectrometry, of the gas liberated after phosphoric acid protonation. The cumulative extent of metaprobe metabolism, as a per cent of dose taking into account the total CO2 production rate of each animal (Mohan et al.) was then calculated.
(§3) Also, over the 7 day experiment, the specific activity of plasma towards GP4NA in the control group averaged 29±6 nMol/min/ml while the septic titer rose to 43±7 and 49±6 on days two and six, respectively. The corresponding values of plasma activity towards GPPaba in the control group averaged 18±7 nMol/min/ml while the septic titer rose to 55±17 and 30±6 on days two and six, respectively. A “sham” breath test using 1.5 mg/kg administration of L-2-aminobutyric[1-^13C] acid in saline on day 3 of the experiment confirmed that oxidation of the release tag was similar in control and test groups, affording a cumulative oxidation of 65±8.3 and 72±9.4 per cent of dose recovery in 3 hours, respectively.

Data set [3] addresses T2, Dipeptidyl peptidase IV (DPPIV) (Sus scrofa, UniProt P22411).
T2 construct: purchased Sigma-Aldrich D7052
The experiment in a line: in-vitro Michaelis-Menten assay with dipeptidyl peptidase reference enzyme. The note with it: read-out: apparent Km. The data set is classed as biochemical. The source says:
Dipeptidyl peptidase reference enzyme was purchased from Sigma-Aldrich (D7052) and assayed by the standard Michaelis-Menten method described in similar studies by Barth and co-workers (Heins, et al.; Rahfeld, et al.). […] Hydrolysis of the latter was quantitated by isotope dilution GC/MS of the N-trifluoroacetyl-propyl ester, using L-2-aminobutyric[^2H5] acid as the internal standard.

Data set [4] addresses T3, Dipeptidyl Peptidase IV (DPPIV/CD26) (Rattus norvegicus, UniProt P14740).
T3 construct: from tissue; host or cells: whole rat in vivo (injected dose, 13CO2 collection)
The experiment in a line: DPPIV metaprobe breath test in the septic rat. The data set is classed as in vivo, Sprague-Dawley rats. As to conditions: 3.5 mg/kg injected. On the procedure:
as §1, §2

A short description of data set [5]: sham breath test with free core tracer in septic rat model. As to conditions: 1.5 mg/kg in saline, day 3, in 3 hours. The data set is classed as in vivo, Sprague-Dawley rats. The procedure:
as §3

Data set [6] has as its system nitric oxide synthase (NOS). The source says:
These studies constitute part of a continuing series intended to extend the protocols initiated by Castillo et al. (1996) and depend on intravenous metaprobe administration and mass spectral analysis of the resulting analytes extracted from plasma.

The target of the next data set is T4, bovine thrombin (Bos taurus, UniProt P00735).
T4 construct: Freshly prepared solutions of bovine thrombin and bovine plasmin, from reconstituted lyophilized powders (Sigma); purchased Sigma
The experiment in a line: metaprobe hydrolysis in solution by purified thrombin. The data set is classed as biochemical. The note with it: 0.5 NIH unit per ml, pH 8.4, 37° C., 15 minutes. The procedure: (§4) The suitability of substrates I-VI was tested by the enzymatic assay protocol of Svendsen. Freshly prepared solutions of bovine thrombin and bovine plasmin, from reconstituted lyophilized powders (Sigma) were prepared in tris-imidazole buffer at pH 8.4 to deliver nominally 0.5 NIH unit per ml of thrombin and 1 WHO unit of plasmin. After preincubation for 5 minutes at 37° C., 0.25 ml of an 0.5 mMolar solution of each substrate in the same aqueous buffer was added and the separate reactions incubated for 15 minutes at the same temperature. Reaction was stopped by addition of 1:9 concentrated HCl:methanol. Concentration of the supernatant, ion exchange chromatography on Dowex-50, with 2N ammonia water eluant, as a further desalting and deproteinizing step, afforded the amino acid fraction resulting from the enzymatic hydrolysis of the metaprobes. The concentration of p-aminobenzoic[1-^13C] acid (with tetradeutero isotopolog as internal quantitation standard) and of L-2-aminobutyric[1-^13C] acid (with pentadeutero isotopolog as internal quantitation standard) were then analyzed by isotope dilution GC/MS using the N-trifluoroacetyl propyl ester derivatives and the total hydrolytic conversion expressed as […]

Another data set deals with T5, bovine plasmin (Bos taurus, UniProt P06868).
T5 construct: Freshly prepared solutions of bovine thrombin and bovine plasmin, from reconstituted lyophilized powders (Sigma); purchased Sigma
T5 sequence (P06868 584-812 limits assumed): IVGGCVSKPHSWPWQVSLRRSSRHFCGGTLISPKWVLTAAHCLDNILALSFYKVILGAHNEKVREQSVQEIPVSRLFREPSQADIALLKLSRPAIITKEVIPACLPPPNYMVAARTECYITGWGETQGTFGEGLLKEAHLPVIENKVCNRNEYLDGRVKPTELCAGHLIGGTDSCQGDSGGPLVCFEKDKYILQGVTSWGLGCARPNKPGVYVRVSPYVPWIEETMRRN
T5 sequence (P06868 104-583 limits assumed): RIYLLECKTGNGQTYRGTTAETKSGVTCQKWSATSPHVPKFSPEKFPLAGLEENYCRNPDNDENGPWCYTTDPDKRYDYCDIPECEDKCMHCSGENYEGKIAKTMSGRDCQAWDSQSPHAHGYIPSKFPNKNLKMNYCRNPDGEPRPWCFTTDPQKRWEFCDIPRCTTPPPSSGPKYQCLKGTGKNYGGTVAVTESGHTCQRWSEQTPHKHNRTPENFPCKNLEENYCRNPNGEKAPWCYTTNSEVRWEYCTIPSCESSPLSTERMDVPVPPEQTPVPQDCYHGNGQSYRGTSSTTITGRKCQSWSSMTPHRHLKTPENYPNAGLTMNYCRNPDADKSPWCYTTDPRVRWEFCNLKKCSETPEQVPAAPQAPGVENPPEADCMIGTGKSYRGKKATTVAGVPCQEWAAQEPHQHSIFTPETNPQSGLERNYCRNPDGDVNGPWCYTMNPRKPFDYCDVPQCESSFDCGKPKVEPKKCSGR
Description: metaprobe hydrolysis in solution by purified plasmin. The data set is classed as biochemical. The note with it: 1 WHO unit, pH 8.4, 37° C., 15 minutes. On the procedure: as §4

A further data set relates to thrombin and plasmin. The experiment in a line: net coagulant potential (NCP) in whole blood, septic rat model. The format is biochemical.
A further data set concerns the target T6, thrombin (Rattus norvegicus, UniProt P18292).
T6 construct: from tissue; host or cells: unfractionated whole blood of control and septic rats
The experiment in a line: thrombin metaprobe hydrolysis in whole blood, septic rat model. The format is biochemical.

The next data set deals with T7, plasmin (Rattus norvegicus, UniProt Q01177).
T7 construct: from tissue; host or cells: unfractionated whole blood of control and septic rats
T7 sequence (Q01177 582-812 limits assumed): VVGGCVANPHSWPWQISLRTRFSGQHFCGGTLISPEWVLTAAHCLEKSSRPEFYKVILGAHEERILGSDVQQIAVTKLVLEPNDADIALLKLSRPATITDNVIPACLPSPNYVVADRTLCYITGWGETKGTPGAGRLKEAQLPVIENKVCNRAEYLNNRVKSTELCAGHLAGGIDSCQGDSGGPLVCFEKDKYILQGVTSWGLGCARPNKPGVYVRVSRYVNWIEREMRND
T7 sequence (Q01177 97-581 limits assumed): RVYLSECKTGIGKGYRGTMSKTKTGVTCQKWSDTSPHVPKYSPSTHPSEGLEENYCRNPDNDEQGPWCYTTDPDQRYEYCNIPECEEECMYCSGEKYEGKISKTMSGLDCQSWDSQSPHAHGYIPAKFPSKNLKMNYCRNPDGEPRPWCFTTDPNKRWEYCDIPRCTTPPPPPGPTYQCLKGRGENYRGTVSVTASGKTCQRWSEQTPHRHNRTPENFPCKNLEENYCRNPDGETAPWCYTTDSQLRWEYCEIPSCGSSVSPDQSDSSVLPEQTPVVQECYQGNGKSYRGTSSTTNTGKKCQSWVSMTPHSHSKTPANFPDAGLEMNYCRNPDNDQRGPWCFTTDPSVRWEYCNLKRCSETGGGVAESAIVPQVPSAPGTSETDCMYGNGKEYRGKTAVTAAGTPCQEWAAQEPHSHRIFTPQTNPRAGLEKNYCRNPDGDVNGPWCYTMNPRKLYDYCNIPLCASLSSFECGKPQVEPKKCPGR
The experiment in a line: plasmin metaprobe hydrolysis in whole blood, septic rat model. The data set is classed as biochemical.

Setting [7] is: control group, average over the 7 day experiment.

Like-named read-outs stand apart in the source and are kept apart here. Square brackets hold non-standard residues; d marks the D form. Peptide text beside a SMILES is read from it. * marks the point of attachment. pNA = O=[N+]([O-])c1ccc(N*)cc1; Abu = CC[C@H](N)C(=O)O

T1 sequence (P14740 37-767 limits assumed): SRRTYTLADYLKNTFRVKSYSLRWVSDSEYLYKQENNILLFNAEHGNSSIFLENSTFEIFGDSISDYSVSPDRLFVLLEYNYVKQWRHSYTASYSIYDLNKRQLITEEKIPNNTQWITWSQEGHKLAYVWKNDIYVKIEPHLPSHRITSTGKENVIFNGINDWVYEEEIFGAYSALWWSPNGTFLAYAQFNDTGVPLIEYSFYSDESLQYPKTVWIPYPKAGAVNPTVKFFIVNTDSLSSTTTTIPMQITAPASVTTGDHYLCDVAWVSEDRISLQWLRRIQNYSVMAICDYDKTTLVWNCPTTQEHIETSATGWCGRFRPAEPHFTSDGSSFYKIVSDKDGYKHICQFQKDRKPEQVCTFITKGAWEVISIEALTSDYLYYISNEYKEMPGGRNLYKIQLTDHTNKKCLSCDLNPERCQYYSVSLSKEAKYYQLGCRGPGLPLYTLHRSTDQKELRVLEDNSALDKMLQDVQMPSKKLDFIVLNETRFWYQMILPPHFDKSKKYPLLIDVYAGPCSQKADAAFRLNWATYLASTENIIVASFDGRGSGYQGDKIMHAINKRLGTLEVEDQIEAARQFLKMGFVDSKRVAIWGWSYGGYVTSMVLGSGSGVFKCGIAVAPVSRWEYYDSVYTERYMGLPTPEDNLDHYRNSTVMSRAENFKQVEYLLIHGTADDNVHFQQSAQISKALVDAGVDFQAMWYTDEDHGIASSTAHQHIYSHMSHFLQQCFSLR
T3 sequence (P14740 whole entry): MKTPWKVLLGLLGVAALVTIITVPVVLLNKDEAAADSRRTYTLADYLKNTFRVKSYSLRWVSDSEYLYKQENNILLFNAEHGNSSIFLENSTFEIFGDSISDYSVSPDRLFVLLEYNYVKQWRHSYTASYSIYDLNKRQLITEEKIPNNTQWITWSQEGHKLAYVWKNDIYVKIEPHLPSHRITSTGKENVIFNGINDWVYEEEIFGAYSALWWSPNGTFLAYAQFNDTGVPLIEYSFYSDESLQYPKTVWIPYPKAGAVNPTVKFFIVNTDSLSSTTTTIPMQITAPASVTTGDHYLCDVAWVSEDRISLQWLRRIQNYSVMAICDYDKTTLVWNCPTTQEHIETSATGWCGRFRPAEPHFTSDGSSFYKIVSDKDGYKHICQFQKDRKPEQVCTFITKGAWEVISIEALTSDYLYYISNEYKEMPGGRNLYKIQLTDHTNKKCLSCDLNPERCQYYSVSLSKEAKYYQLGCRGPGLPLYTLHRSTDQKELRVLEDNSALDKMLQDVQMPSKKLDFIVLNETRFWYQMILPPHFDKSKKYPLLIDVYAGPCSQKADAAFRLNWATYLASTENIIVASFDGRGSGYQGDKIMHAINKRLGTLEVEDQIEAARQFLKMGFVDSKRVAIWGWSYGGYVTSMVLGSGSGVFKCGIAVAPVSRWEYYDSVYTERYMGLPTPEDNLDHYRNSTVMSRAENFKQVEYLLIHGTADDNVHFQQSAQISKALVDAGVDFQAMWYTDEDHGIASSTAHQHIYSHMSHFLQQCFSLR
T2 sequence (P22411 whole entry): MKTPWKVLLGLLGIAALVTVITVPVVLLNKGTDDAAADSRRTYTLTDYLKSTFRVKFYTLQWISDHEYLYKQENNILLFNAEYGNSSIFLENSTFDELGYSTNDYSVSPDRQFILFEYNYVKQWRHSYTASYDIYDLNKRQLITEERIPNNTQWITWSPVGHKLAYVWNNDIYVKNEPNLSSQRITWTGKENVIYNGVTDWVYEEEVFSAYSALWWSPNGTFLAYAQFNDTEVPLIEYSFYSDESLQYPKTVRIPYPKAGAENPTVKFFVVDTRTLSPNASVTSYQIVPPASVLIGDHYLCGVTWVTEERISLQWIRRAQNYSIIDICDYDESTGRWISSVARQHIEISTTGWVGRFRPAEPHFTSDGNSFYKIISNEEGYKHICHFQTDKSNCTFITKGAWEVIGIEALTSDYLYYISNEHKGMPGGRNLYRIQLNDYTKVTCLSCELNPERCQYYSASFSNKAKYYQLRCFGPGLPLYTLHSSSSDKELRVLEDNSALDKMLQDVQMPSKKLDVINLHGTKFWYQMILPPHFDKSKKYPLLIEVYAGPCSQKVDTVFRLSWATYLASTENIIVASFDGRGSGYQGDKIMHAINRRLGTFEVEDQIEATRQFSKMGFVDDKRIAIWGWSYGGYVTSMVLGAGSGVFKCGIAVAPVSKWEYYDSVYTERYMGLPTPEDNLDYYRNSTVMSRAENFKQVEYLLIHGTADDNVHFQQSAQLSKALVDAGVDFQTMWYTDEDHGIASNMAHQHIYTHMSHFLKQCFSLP

Turning to `CCOC(=O)[C@@H]1CCCN1C(=O)[C@@H]1CCCN1[13C](=O)CN` [Aminopeptidase P Metaprobe, glycyl[1-^13C]-L-prolyl-L-proline, ethyl ester], the “% Dose metabolized” value with Aminopeptidase P (APP) [1] (Control, two hour incubation at 37° C.) is 22 ± 4 % Dose; in the data set with Aminopeptidase P (APP) [1] (Test sample, ARDS), 44 ± 14 % Dose; with Aminopeptidase P (APP) [2] (Control), 5 ± 4 % Dose; in the data set with Aminopeptidase P (APP) [2] (Test sample, Sepsis), 28 ± 7 % Dose.

For the compound `NCC(=O)N1CCC[C@H]1C(=O)Nc1ccc([N+](=O)[O-])cc1` [GP4NA, Glycyl-Prolyl-4-nitro-anilide, reference compound] (H-Gly-Pro-pNA), the “specific activity of plasma towards substrate” value on DPPIV (setting [7]) is 29 ± 6 nmol/min/mL; at DPPIV (septic, day six) it was 49 ± 6 nmol/min/mL; at DPPIV (septic, day two), 43 ± 7 nmol/min/mL. Further, in [3], the Km came out at 130 µM.

On to `CC[C@H](NC(=O)[C@@H]1CCCN1C(=O)CN)[13C](=O)O` [GPA, glycyl-prolyl-2-aminobutyric[1-^13C] acid], for which the “Cumulative Per Cent of Dose Exhaled in 3 Hours” value in data set [4] (Day 1, CONTROL) is on record as 4.3 (± 0.8) Per Cent of Dose; in data set [4] (Day 1, SEPSIS) it was 5.7 (± 1.4) Per Cent of Dose; in data set [4] (Day 2, CONTROL), 8.9 (± 1.3) Per Cent of Dose; in data set [4] (Day 2, SEPSIS), 22.5 (± 5.3) Per Cent of Dose; in data set [4] (Day 6, CONTROL) it was 4.9 (± 0.8) Per Cent of Dose; in data set [4] (Day 6, SEPSIS), 9.2 (± 6.3) Per Cent of Dose.

For `CC[C@H](NC(=O)[C@@H]1CCCN1C(=O)CN)C(=O)O` [GPA, glycyl-prolyl-2-aminobutyric[1-^13C] acid] (H-Gly-Pro-[Abu]-OH), the Michaelis constant (Km) in [3] turned out to be 200 µM.

Turning to `CC[C@H](N)[13C](=O)O` [L-2-aminobutyric[1-^13C] acid], the results for the “cumulative oxidation, per cent of dose recovery” value in data set [5] (control group) and in data set [5] (test (septic) group) were 65±8.3 per cent of dose and 72±9.4 per cent of dose, respectively.

With `N[C@@H](CCCN=C([15NH2])[15NH2])C(=O)O` [L-arginine[guanidino-^15N2]], the “NOPI2 on Admission” value in data set [6] (2 day average in ICU, rapid recovery, no sepsis, n = 4) is recorded as 0.3 +/− 0.14 (n = 4); in data set [6] (4 day average in ICU, recovery, sepsis treated successfully, n = 4) it was 2.99 +/− 1.24 (n = 4); in [6] (7 day average in ICU, death from complications of sepsis and trauma, n = 3), 6.64 +/− 1.92 (n = 3); in data set [6] (Normal Control, healthy (not admitted), n = 4) it was 0.2 +/− 0.15 (n = 4).

With `CCO[13C](=O)c1ccc(NC(=O)[C@H](CCCNC(=N)N)NC(=O)[C@@H]2CCCN2C(=O)[C@@H](Cc2ccccc2)NC(C)=O)cc1` [Substrate I, N-acetyl-d-phenylalanyl-L-prolyl-L-arginyl-p-aminobenzoic[1-^13C] acid, ethyl ester], the “Product formed, Thrombin” value on bovine thrombin was 6.0 nmol/min/mL. In addition, the “Product formed, Plasmin” value at bovine plasmin is 1.8 nmol/min/mL.

Regarding `CCO[13C](=O)[C@H](CC)NC(=O)[C@H](CCCNC(=N)N)NC(=O)[C@@H]1CCCN1C(=O)[C@@H](Cc1ccccc1)NC(C)=O` [Substrate II, N-acetyl-d-phenylalanyl-L-prolyl-L-arginyl-L-2-aminobutyric[1-^13C] acid, ethyl ester], the “Product formed, Thrombin” value at bovine thrombin came to 6.9 nmol/min/mL. Further, at bovine plasmin, the “Product formed, Plasmin” value stood at 2.3 nmol/min/mL.

`CCO[13C](=O)c1ccc(NC(=O)C(CCCNC(=N)N)NC(=O)C2CCCN2C(=O)CNC(C)=O)cc1` [Substrate III, N-acetyl-glycyl-L-prolyl-L-arginyl-p-aminobenzoic[1-^13C] acid, ethyl ester]: on bovine thrombin, the “Product formed, Thrombin” value is 6.6 nmol/min/mL. Further, the “Product formed, Plasmin” value on bovine plasmin amounted to 3.6 nmol/min/mL.

Take `CCO[13C](=O)[C@H](CC)NC(=O)[C@H](CCCNC(=N)N)NC(=O)[C@@H]1CCCN1C(=O)CNC(C)=O` [Substrate IV, N-acetyl-glycyl-L-prolyl-L-arginyl-L-2-aminobutyric[1-^13C] acid, ethyl ester]: the “Product formed, Thrombin” value at bovine thrombin stood at 7.8 nmol/min/mL. For the same compound, at bovine plasmin, the “Product formed, Plasmin” value is 3.1 nmol/min/mL. Also, the “NCP, net coagulant potential (difference between metaprobe IV and VI)” value is reported as 11 ± 10% in the data set on thrombin and plasmin (Control, Day 0); 62 ± 17% in the data set on thrombin and plasmin (Septic, Day 2); −13 ± 21% in the data set on thrombin and plasmin (Septic, Day 6); 2 ± 15% in the data set with thrombin and plasmin (Septic, Day 10). The “Percent of Metaprobe Dose Metabolized” value at thrombin (Control, Day 0) was found to be 22 ± 9%; on thrombin (Septic, Day 2) it was 76 ± 15%; on thrombin (Septic, Day 6), 39 ± 12%; at thrombin (Septic, Day 10), 25 ± 10%.

As for `CCO[13C](=O)c1ccc(NC(=O)[C@H](CCCCN)NC(=O)[C@H](CC(C)C)NC(=O)[C@@H](N)CC(C)C)cc1` [Substrate V, L-leucyl-L-leucyl-L-lysyl-p-aminobenzoic[1-^13C] acid, ethyl ester], the “Product formed, Thrombin” value on bovine thrombin is 0.3 nmol/min/mL. Further, the “Product formed, Plasmin” value at bovine plasmin worked out at 7.2 nmol/min/mL.

Take `CCO[13C](=O)[C@H](CC)NC(=O)[C@H](CCCCN)NC(=O)[C@H](CC(C)C)NC(=O)[C@@H](N)CC(C)C` [Substrate VI, L-leucyl-L-leucyl-L-lysyl-L-2-aminobutyric[1-^13C] acid, ethyl ester]: at bovine thrombin, the “Product formed, Thrombin” value is 0.4 nmol/min/mL. The “Percent of Metaprobe Dose Metabolized” value on plasmin (Control, Day 0) amounted to 11 ± 5%; on plasmin (Septic, Day 2), 14 ± 7%; on plasmin (Septic, Day 6) it was 52 ± 17%; at plasmin (Septic, Day 10) it was 23 ± 12%. The “Product formed, Plasmin” value on bovine plasmin worked out at 8.1 nmol/min/mL.

For “gylcyl-prolyl-p-aminobenzoic[1-^13C] acid [GPPaba]”, the “specific activity of plasma towards substrate” value amounted to 18 ± 7 nmol/min/mL at DPPIV (setting [7]); 30 ± 6 nmol/min/mL at DPPIV (septic, day six); 55 ± 17 nmol/min/mL at DPPIV (septic, day two).

Usually Km stands for the substrate concentration at which the rate is half of its maximum.

The values are drawn from patent publication US6610270B1, “In vivo determination of metabolic function for use in therapy management” (Xanthus Life Sciences, Inc., priority 1998, dated 2003).
